Assay results: EP0819380A1, “Bacteriocidal, antibacterial and bacteriostatic composition” (priority 1996, dated 1998)
Where two headings read alike, the source gives them in different places.

Columns and labels:
[1] = test system: herpes simplex I (HSV-1, strain VRIII); assay: Inactivation of herpes simplex I (viral infectivity titer, CPE in Vero cells); type: cell-based; conditions: for Viral infectivity titer when contacted for an hour (TCID50/25 µl): room temperature, composition 0.5% butyl p-oxybenzoate
[2] = test system: influenza virus type B (FluV-B, strain B/Lee/40); type: cell-based
mice = conditions: p.o.; cited from earlier work
Type HIV-1 (LAI strain) = assay: Inactivation of HIV (infectivity titer in MT-4 cells); type: cell-based; conditions: summary of Table 6, concentration-dependent
[3] = Composition : Viral solution 1 : 4, 1 hour
[4] = Composition : Viral solution 1 : 9, 1 hour
[5] = Composition : Viral solution 1 : 99, 1 hour
[6] = mixing ratio 1:9, Contact Time 0 minute
[7] = mixing ratio 1:9, Contact Time 5 minutes
[8] = mixing ratio 1:9, Contact Time 15 minutes
[9] = mixing ratio 1:9, Contact Time 30 minutes
[10] = mixing ratio 1:9, Contact Time 1 hour

Structure (SMILES)	Viral infectivity titer when contacted for an hour (TCID50/25 µl) [1, 3]	Viral infectivity titer when contacted for an hour (TCID50/25 µl) [1, 4]	Viral infectivity titer when contacted for an hour (TCID50/25 µl) [1, 5]	Viral infectivity titer for various contact time periods (TCID50/25 µl) [1, 6]	Viral infectivity titer for various contact time periods (TCID50/25 µl) [1, 7]	Viral infectivity titer for various contact time periods (TCID50/25 µl) [1, 8]	Viral infectivity titer for various contact time periods (TCID50/25 µl) [1, 9]	Viral infectivity titer for various contact time periods (TCID50/25 µl) [1, 10]	Viral infectivity titer for various contact time periods (TCID50/25 µl) ([2]; 0.5 h)	Viral infectivity titer for various contact time periods (TCID50/25 µl) ([2]; 1 h)	Viral infectivity titer when contacted for an hour (TCID50/25 µl) ([2]; 1 h)	Viral infectivity titer when contacted for an hour (TCID50/25 µl) ([2]; FluV-B, Composition : Viral solution 1 : 99, 1 hour, room temperature, composition 0.5% butyl p-oxybenzoate)	Acute toxicity (LD-50) (mice) [mg/kg]	inactivation effect against HIV (Type HIV-1 (LAI strain))
CCO [70% Ethanol, Ethanol, reference compound]	3.2 x 10^4 TCID50/25 µl	5.6 x 10^4 TCID50/25 µl	1.0 x 10^5 TCID50/25 µl	3.2 x 10^4 TCID50/25 µl	3.2 x 10^4 TCID50/25 µl	1.8 x 10^4 TCID50/25 µl	1.8 x 10^3 TCID50/25 µl	5.6 x 10^4 TCID50/25 µl	3.2 x 10^3 TCID50/25 µl	5.6 x 10^3 TCID50/25 µl	3.2 x 10^3 TCID50/25 µl			
CCCCOC(=O)c1ccc(O)cc1 [butyl ester, butyl p-oxybenzoate]	≤3.2 x 10^1 TCID50/25 µl	≤3.2 x 10^0 TCID50/25 µl	1.8 x 10^4 TCID50/25 µl	5.6 x 10^3 TCID50/25 µl	3.2 x 10^0 TCID50/25 µl	3.2 x 10^0 TCID50/25 µl	3.2 x 10^0 TCID50/25 µl	3.2 x 10^0 TCID50/25 µl				3.2 x 10^3 TCID50/25 µl	17000	
CCOC(=O)c1ccc(O)cc1 [ethyl ester, ethyl p-oxybenzoate]													5000	potent inactivation effect
CCCOC(=O)c1ccc(O)cc1 [propyl ester, Propyl p-oxybenzoate]													8000	
